“Also recorded” adds a separate entry of the source.
Columns and labels:
Topo IIα = Topo IIα (Homo sapiens, UniProt P11388); experiment: DNA cleavage assay (linear DNA formation); type: biochemical; parameters: purchased TopoGENE (TopoGEN) TG2000H; conditions: supercoiled plasmid with Topo II, 50 μM
Description: DNA samples were separated by electrophoresis on 0.8% agarose gels and visualized by ethium bromide staining. The positions of K-DNA and decatenated (D) DNA products are marked by arrows. Experiments were repeated five times and the densitometry of the D bands were used to establish an inhibition curve to calculate IC50. (b) Supercoiled pHOT™ plasmid was incubated with human TOP2a in the presence of 50 μM Etopside, 50 uM ICRF193 or 0-50 μM of compound #60 (Top60) compound at 37° C. for 1 hour. DNA products were separated by electrophoresis on 1% agarose gels and visualized by ethium bromide staining. The positions of supercoiled (SC), nicked (N), and relaxed (R) DNA bands are marked by arrows. Experiments were repeated five times and the densitometiy of the SC bands were used to establish an inhibition curve to calculate IC50. (c) Supercoiled pHOT™ plasmid was incubated with Topoisomerase I prior to addition of either mAMSA or compound #60 (Top60) at concentrations of 0, 5, 10, 25 and 50 μM at 37° C. for 30 minutes. […]
Top60 is a catalytic inhibitor of Topo II To verify that our lead Compound 60(Top60), the formation of ds DNA breaks was assayed both in and outside of cells. […] Furthermore, H2AXγ protein expression was assessed by Western blot to determine if the lead compound could cause DNA damage in cells, and compared to Etoposide as a control (FIG. 3b). […]

[1] = tested on: Etoposide-resistant K562 cell line; experiment: MTS cell proliferation assay in Etoposide-resistant cells; type: cell-based; conditions: 0-20 μM, 48 hours; cells with downregulated Topo II
Description: Whole cell lyses were collected and used to measure protein levels of TOP2α, TOP2β with β-Actin as a loading control; (b) K562 cells were treated with 0, 1, and 10 μM of Top60 for 24 hours. Protein lyses were collected from soluble nuclear extract, chromatin fraction or whole cell lysate. TOP2α and TOP2β protein levels were determined by immunoblotting with Lamin A/C, Histone H3 and β-Actin as loading controls; and (c) Etoposide-resistant K562 cell line was established by treating cells with 0.5 μM of Etoposide for 6 months. TOP2α, TOP2β, and β-actin protein levels were determined by immunoblotting. Etoposide-resistant K562 cells were treated with 0, 1, 10, 15 and 20 μM of Top60, Etoposide or ICRF187 for 48 hours. Cell proliferation rates were determined by MTS assays.
In order to asses binding of the lead compound to Topo II, a thermal shift assay was performed. […] It was observed that Topo IIα was stabilized up to 43° C. in the presence of the lead compound (FIG. 4A). Furthermore, cellular fractionation was performed to assess localized changes in Topo II in response to compound treatment. As Topo IIα is important for decatenating DNA during cellular replication, it is expected to be chromatin bound. […] To further verily that Topo II is the only observable target of Top60, Etoposide resistant cell lines were bred. […]

K562 cells = experiment: MTS cell proliferation assay; type: cell-based; conditions: 0-20 μM 48 hours, 20 μM 0-72 hours, listed as Top60
Description: Cytotoxicity was evaluated by measuring LDH levels from cell culture media; (b) K562 cells were treated with either vehicle or 10-20 μM of Top60, Etoposide and ICRF187 for 4 hours. Whole cell lyses were collected to measure γH2AX levels with vinculin as the loading control; (c) K562 cells were treated with 0, 1, 5, 10, 15 and 20 μM of Top60, 20 μM Etoposide or 20 uM ICRF187 for 48 hours. Cell proliferation rates were determined by MTS assays; and (d) K562 cells were treated with 20 μM of Top60, Etoposide or ICRF187 for 0, 24, 48 and 72 hours. Cell proliferation rates were measured by MTS assays. All results were collected from three independent experiments.
(§1) BrDU incorporation and cell proliferation assays—Cell proliferation rates were measured by using the CellTitre™ 96 AqueousOne™ kit (Promega™) and bromodeoxyuridine (BrdU) assay kit (Millipore™) according to the manufacturer's protocol, with minor modifications as we have previously described by Li H. et al.^19

Hela cells [2] = experiment: BrdU incorporation assay; type: cell-based; conditions: 20 μM, 48 hours, listed as Top60
Description: (§2) BrdU incorporation rates were determined by Millipore™ BrdU incorporation kit (CAT #2750). (b-c) Hela cells were treated with vehicle or 20 μM of Top60 for 48 hours. Cells were then stained with APC-BrdU and 7-AAD for 4 hours, and subjected to FACS assays to determine cell populations at Sub G0/G1, G0/G1, S, and G2/M phases. Results were collected from three independent experiments, (d-e) Hela cells were treated with either vehicle or 20 μM T60 for 48 hours. Cells were fixed and co-stained with DAPI and phalloidin, and examined by confocal microscopy. Fifty cells were chosen from five high power fields to analyze nuclei sizes by the Image J software. Representative bright field microscopic images were also shown. Scale bar=50 μm.
as §1

Hela cells [3] = experiment: FACS cell cycle assay; type: cell-based; conditions: 20 μM, 48 hours
Description: as §2
FACS assays—Cell cycling was assessed by using BrdU incorporation into S-phase DNA through using the APC BrdU flow kit (BD Pharmingen™; Franklin Lakes, N.J., USA) according to manufacturer's protocol. Briefly, 1 mM of BrdU was added to cells and incubated for 6 hours. Cells were incubated with anti-BrdU antibody and stained with 7-AAD before processing the cells for flow cytometry.

Cancer Cell = experiment: Cancer cell growth inhibition; type: cell-based; parameters: key: Y is an indication that activity was found
Description: as §1

Sequence of Topo IIα (P11388 whole entry): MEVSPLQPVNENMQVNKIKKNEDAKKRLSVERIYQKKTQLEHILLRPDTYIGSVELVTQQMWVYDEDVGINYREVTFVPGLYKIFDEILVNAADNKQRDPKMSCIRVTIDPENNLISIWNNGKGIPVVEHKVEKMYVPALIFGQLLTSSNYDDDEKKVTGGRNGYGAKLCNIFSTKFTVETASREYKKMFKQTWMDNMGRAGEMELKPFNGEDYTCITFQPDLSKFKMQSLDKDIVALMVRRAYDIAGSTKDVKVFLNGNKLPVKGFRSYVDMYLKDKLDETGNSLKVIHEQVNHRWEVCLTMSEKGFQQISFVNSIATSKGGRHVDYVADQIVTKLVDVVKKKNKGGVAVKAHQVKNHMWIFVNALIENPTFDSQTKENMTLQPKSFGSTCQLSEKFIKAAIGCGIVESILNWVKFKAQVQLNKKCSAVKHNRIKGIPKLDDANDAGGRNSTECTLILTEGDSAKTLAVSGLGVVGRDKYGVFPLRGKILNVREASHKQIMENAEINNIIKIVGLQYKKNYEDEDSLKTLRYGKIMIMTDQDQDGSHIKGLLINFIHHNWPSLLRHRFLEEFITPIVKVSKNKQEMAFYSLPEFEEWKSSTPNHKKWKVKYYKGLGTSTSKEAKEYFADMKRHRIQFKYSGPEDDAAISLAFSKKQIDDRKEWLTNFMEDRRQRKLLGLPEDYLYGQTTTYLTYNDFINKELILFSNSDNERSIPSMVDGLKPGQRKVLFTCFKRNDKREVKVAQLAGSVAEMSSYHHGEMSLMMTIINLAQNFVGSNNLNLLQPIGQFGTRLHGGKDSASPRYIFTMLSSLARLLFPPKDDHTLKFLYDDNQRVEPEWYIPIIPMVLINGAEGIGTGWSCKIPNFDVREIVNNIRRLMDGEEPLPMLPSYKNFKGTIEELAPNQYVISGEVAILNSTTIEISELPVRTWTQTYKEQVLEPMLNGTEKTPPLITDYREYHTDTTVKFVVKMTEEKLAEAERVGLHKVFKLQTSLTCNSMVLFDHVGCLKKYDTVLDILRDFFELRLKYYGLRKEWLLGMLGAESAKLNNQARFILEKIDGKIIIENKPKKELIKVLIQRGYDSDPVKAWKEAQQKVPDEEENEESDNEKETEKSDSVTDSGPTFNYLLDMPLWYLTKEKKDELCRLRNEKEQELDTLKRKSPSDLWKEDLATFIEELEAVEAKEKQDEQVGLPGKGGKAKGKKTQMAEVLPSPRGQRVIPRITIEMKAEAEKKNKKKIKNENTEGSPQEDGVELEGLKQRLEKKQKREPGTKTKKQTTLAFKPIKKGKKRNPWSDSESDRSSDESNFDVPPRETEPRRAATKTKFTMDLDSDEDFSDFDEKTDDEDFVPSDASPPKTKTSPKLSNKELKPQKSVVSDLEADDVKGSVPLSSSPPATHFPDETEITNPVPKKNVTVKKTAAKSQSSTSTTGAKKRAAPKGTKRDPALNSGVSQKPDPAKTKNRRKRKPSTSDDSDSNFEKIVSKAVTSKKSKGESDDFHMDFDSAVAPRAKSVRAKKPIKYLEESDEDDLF

Structure (SMILES): O=C(Nc1ccc(Nc2ccccc2)cc1)c1ccc[nH]c1=S [Compound 60]
- formation of linear DNA (double stranded DNA breaks, poison activity) (Topo IIα): no linear DNA is formed
- formation of linear DNA (double stranded DNA breaks, poison activity) (Topo IIα; listed as Top60): almost no band corresponding to linear DNA is formed
- inhibitory effects on Etoposide resistant cells [1]: dramatically reduced
- cell proliferation (MTS) (K562 cells): strong inhibitory effects; also recorded: inhibits cell proliferation
- cellular replication (BrdU incorporation) (Hela cells [2]): Decreased cellular replication; also recorded: inhibits DNA synthesis at S phase
- cell population in G2/M (Hela cells [3]): increased cell population in G2/M
- cell population in S-phase (Hela cells [3]): large cell population delayed in S-phase
- Cancer Cell Growth Inhib. (Cancer Cell): Y

Source: US20210379077A1, “TOPOISOMERASE II CATALYTIC INHIBITOR COMPOUND THERAPEUTICS FOR CANCER TREATMENT, METHODS AND USES” (The University of British Columbia, priority 2018, published 2021)
